Patent publication US20090176807A1, “GLUCOCORTICOID MIMETICS, METHODS OF MAKING THEM, PHARMACEUTICAL COMPOSITIONS, AND USES THEREOF” (priority 2005, published 2009)

Target: T1, human glucocorticoid receptor (GR) complex (Homo sapiens, UniProt P04150)
T1 construct: made in house; host or cells: insect expression system (baculovirus lysate)
T1 sequence (P04150 1-777): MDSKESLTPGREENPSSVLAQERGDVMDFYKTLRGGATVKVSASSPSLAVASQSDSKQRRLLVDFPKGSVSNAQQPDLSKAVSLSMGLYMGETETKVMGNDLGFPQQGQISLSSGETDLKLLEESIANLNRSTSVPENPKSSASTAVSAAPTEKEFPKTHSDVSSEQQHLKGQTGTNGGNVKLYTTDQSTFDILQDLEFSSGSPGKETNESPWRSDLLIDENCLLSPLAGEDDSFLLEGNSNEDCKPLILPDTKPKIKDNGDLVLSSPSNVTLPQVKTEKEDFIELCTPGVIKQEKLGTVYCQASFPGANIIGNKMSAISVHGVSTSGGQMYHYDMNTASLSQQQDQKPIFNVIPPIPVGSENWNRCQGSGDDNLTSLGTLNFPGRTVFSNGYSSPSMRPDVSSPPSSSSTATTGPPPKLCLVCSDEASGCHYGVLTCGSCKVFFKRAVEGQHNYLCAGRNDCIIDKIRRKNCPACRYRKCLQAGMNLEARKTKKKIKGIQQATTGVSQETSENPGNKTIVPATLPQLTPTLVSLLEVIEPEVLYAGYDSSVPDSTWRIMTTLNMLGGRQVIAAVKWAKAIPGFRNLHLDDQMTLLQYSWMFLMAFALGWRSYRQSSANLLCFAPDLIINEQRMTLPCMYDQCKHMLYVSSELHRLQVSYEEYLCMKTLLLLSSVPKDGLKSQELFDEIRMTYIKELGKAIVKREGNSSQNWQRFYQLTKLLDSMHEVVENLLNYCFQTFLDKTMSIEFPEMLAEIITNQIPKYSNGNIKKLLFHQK
Assay: Glucocorticoid receptor competitive binding assay (fluorescence polarization)
Details: competition with TAMRA-labeled dexamethasone, result in words only
Description: Compounds of the invention were evaluated for binding to the steroid receptor by a fluorescence polarization competitive binding assay.
The wavelengths for maximum excitation and emission of the fluorescent probe should first be measured. An example of such a probe is rhodamine (TAMRA)-labeled dexamethasone.
The affinity of the probe for the steroid receptor was then determined in a titration experiment. The fluorescence polarization value of the probe in assay buffer was measured on an SLM-8100 fluorometer using the excitation and emission maximum values described above. Aliquots of expression vector lysate were added and fluorescence polarization was measured after each addition until no further change in polarization value was observed. Non-linear least squares regression analysis was used to calculate the dissociation constant of the probe from the polarization values obtained for lysate binding to the probe.
This assay uses fluorescence polarization (FP) to quantitate the ability of test compounds to compete with tetramethyl rhodamine (TAMRA)-labeled dexamethasone for binding to a human glucocorticoid receptor (GR) complex prepared from an insect expression system. The assay buffer was: 10 mM TES, 50 mM KCl, 20 mM Na2MoO4.2H2O, 1.5 mM EDTA, 0.04% w/v CHAPS, 10% v/v glycerol, 1 mM dithiothreitol, pH 7.4. Test compounds were dissolved to 1 mM in neat DMSO and then further diluted to 10× assay concentration in assay buffer supplemented with 10% v/v DMSO. Test compounds were serially diluted at 10× assay concentrations in 10% DMSO-containing buffer in 96-well polypropylene plates. Binding reaction mixtures were prepared in 96-well black Dynex microtiter plates by sequential addition of the following assay components to each well: 15 μL of 10× test compound solution, 85 μL of GR-containing baculovirus lysate diluted 1:170 in assay buffer, and 50 μL of 15 nM TAMRA-labeled dexamethasone. Positive controls were reaction mixtures containing no test compound; negative controls (blanks) were reaction mixtures containing 0.7 μM to 2 μM dexamethasone. […] IC50 values were determined by iterative non-linear curve fitting of the FP signal data to a 4-parameter logistic equation.

| activity in the GR binding assay | SMILES |
| --- | --- |
| potent activity | CC(C)(CC(O)(Cn1cc(Cl)c(=O)c2sccc21)C(F)(F)F)c1cccc(-c2ccccc2)c1 (stereo not shown) [4-(4-Biphenyl-3-yl-2-hydroxy-4-methyl-2-trifluoromethylpentyl)-6-chloro-4H-thieno[3,2-b]pyridin-7-one] |
| potent activity | COc1ccc(F)cc1C(C)(C)CC(O)(Cn1ccc(=O)c2cnccc21)C(F)(F)F (stereo not shown) [1-[4-(5-Fluoro-2-methoxyphenyl)-2-hydroxy-4-methyl-2-trifluoromethylpentyl]-1H-[1,6]naphthyridin-4-one] |
| potent activity | CC(C)(CC(O)(Cn1cc(Cl)c(=O)c2sccc21)C(F)(F)F)c1cc(-c2cccnc2)cc2c1OCC2 (stereo not shown) [6-Chloro-4-[2-hydroxy-4-methyl-4-(5-pyridin-3-yl-2,3-dihydrobenzofuran-7-yl)-2-trifluoromethylpentyl]-4H-thieno[3,2-b]pyridin-7-one] |
| potent activity | COc1ccc(-c2cccnc2)cc1C(C)(C)CC(O)(Cn1cc(Cl)c(=O)c2sccc21)C(F)(F)F (stereo not shown) [6-Chloro-4-[2-hydroxy-4-(2-methoxy-5-pyridin-3-ylphenyl)-4-methyl-2-trifluoromethylpentyl]-4H-thieno[3,2-b]pyridin-7-one] |
| potent activity | Cc1ccc(F)cc1C(C)(C)CC(O)(Cn1ccc(=O)c2cnccc21)C(F)(F)F (stereo not shown) [1-[4-(5-Fluoro-2-methylphenyl)-2-hydroxy-4-methyl-2-trifluoromethylpentyl]-1H-[1,6]naphthyridin-4-one] |
| potent activity | COc1ccc(-c2cccnc2)cc1C(C)(C)CC(O)(Cn1ccc(=O)c2sccc21)C(F)(F)F (stereo not shown) [4-[2-Hydroxy-4-(2-methoxy-5-pyridin-3-ylphenyl)-4-methyl-2-trifluoromethylpentyl]-4H-thieno[3,2-b]pyridin-7-one] |
| potent activity | CC(C)(CC(O)(Cn1ccc(=O)c2sccc21)C(F)(F)F)c1cccc(-c2ccccc2)c1 (stereo not shown) [4-(4-Biphenyl-3-yl-2-hydroxy-4-methyl-2-trifluoromethylpentyl)-4H-thieno[3,2-b]pyridin-7-one] |
| potent activity | CC(C)(CC(O)(Cn1cc(Cl)c(=O)c2cnccc21)C(F)(F)F)c1cc(-c2cccnc2)cc2c1OCC2 (stereo not shown) [3-Chloro-1-[2-hydroxy-4-methyl-4-(5-pyridin-3-yl-2,3-dihydrobenzofuran-7-yl)-2-trifluoromethylpentyl]-1H-[1,6]naphthyridin-4-one] |
| potent activity | CC(C)(CC(O)(Cn1cc(Br)c(=O)c2sccc21)C(F)(F)F)c1cccc2c1OCC2 (stereo not shown) [6-Bromo-4-[4-(2,3-dihydrobenzofuran-7-yl)-2-hydroxy-4-methyl-2-trifluoromethylpentyl]-4H-thieno[3,2-b]pyridin-7-one] |
| potent activity | CC(C)(CC(O)(Cn1cc(Cl)c(=O)c2cnccc21)C(F)(F)F)c1cccc2c1OCO2 (stereo not shown) [1-(4-Benzo[1,3]dioxol-4-yl-2-hydroxy-4-methyl-2-trifluoromethylpentyl)-3-chloro-1H-[1,6]naphthyridin-4-one] |
| potent activity | Cc1cccc(C(C)(C)CC(O)(Cn2ccc(=O)c3sccc32)C(F)(F)F)c1O (stereo not shown) [4-[2-Hydroxy-4-(2-hydroxy-3-methylphenyl)-4-methyl-2-trifluoromethylpentyl]-4H-thieno[3,2-b]pyridin-7-one] |

Further lines, the compound ahead of its results:

| SMILES | activity in the GR binding assay |
| --- | --- |
| Cc1ccc(F)cc1C(C)(C)CC(O)(Cn1ccc(=O)c2sccc21)C(F)(F)F (stereo not shown) [4-[4-(5-Fluoro-2-methylphenyl)-2-hydroxy-4-methyl-2-trifluoromethylpentyl]-4H-thieno[3,2-b]pyridin-7-one] | potent activity |
| CC(C)(CC(O)(Cn1ccc(=O)c2sccc21)C(F)(F)F)c1cc(-c2cncnc2)cc2c1OCC2 (stereo not shown) [4-[2-Hydroxy-4-methyl-4-(5-pyrimidin-5-yl-2,3-dihydrobenzofuran-7-yl)-2-trifluoromethylpentyl]-4H-thieno[3,2-b]pyridin-7-one] | potent activity |
| CC(C)(CC(O)(Cn1ccc(=O)c2cnccc21)C(F)(F)F)c1cc(F)ccc1O (stereo not shown) [1-[4-(5-Fluoro-2-hydroxyphenyl)-2-hydroxy-4-methyl-2-trifluoromethylpentyl]-1H-[1,6]naphthyridin-4-one] | potent activity |
| CC(C)(CC(O)(Cn1ccc(=O)c2sccc21)C(F)(F)F)c1cc(-c2cncnc2)ccc1O (stereo not shown) [4-[2-Hydroxy-4-(2-hydroxy-5-pyrimidin-5-ylphenyl)-4-methyl-2-trifluoromethylpentyl]-4H-thieno[3,2-b]pyridin-7-one] | potent activity |
| COc1ccccc1C(C)(C)CC(O)(Cn1ccc(=O)c2sccc21)C(F)(F)F (stereo not shown) [4-[2-Hydroxy-4-(2-methoxyphenyl)-4-methyl-2-trifluoromethylpentyl]-4H-thieno[3,2-b]pyridin-7-one] | potent activity |
| COc1c(C)cccc1C(C)(C)CC(O)(Cn1ccc(=O)c2sccc21)C(F)(F)F (stereo not shown) [4-[2-Hydroxy-4-(2-methoxy-3-methylphenyl)-4-methyl-2-trifluoromethylpentyl]-4H-thieno[3,2-b]pyridin-7-one] | potent activity |
| CC(C)(CC(O)(Cn1ccc(=O)c2sccc21)C(F)(F)F)c1cccc2c1OCC2 (stereo not shown) [4-[4-(2,3-Dihydrobenzofuran-7-yl)-2-hydroxy-4-methyl-2-trifluoromethylpentyl]-4H-thieno[3,2-b]pyridin-7-one] | potent activity |
| COc1c(Br)cccc1C(C)(C)CC(O)(Cn1ccc(=O)c2sccc21)C(F)(F)F (stereo not shown) [4-[4-(3-Bromo-2-methoxyphenyl)-2-hydroxy-4-methyl-2-trifluoromethylpentyl]-4H-thieno[3,2-b]pyridin-7-one] | potent activity |
| CC(C)(CC(O)(Cn1cc(Cl)c(=O)c2sccc21)C(F)(F)F)c1cccc2c1OCC2 (stereo not shown) [6-Chloro-4-[4-(2,3-dihydrobenzofuran-7-yl)-2-hydroxy-4-methyl-2-trifluoromethylpentyl]-4H-thieno[3,2-b]pyridin-7-one] | potent activity |
| COc1ccc(F)cc1C(C)(C)CC(O)(Cn1ccc(=O)c2sccc21)C(F)(F)F (stereo not shown) [4-[4-(5-Fluoro-2-methoxyphenyl)-2-hydroxy-4-methyl-2-trifluoromethylpentyl]-4H-thieno[3,2-b]pyridin-7-one] | potent activity |
| CC(C)(CC(O)(Cn1cc(Cl)c(=O)c2cnccc21)C(F)(F)F)c1cc(-c2cncnc2)cc2c1OCC2 (stereo not shown) [3-Chloro-1-[2-hydroxy-4-methyl-4-(5-pyrimidin-5-yl-2,3-dihydrobenzofuran-7-yl)-2-trifluoromethylpentyl]-1H-[1,6]naphthyridin-4-one] | potent activity |
| CC(C)(CC(O)(Cn1cc(Cl)c(=O)c2sccc21)C(F)(F)F)c1cc(-c2cncnc2)cc2c1OCC2 (stereo not shown) [6-Chloro-4-[2-hydroxy-4-methyl-4-(5-pyrimidin-5-yl-2,3-dihydrobenzofuran-7-yl)-2-trifluoromethylpentyl]-4H-thieno[3,2-b]pyridin-7-one] | potent activity |
| CC(C)(CC(O)(Cn1cc(Cl)c(=O)c2sccc21)C(F)(F)F)c1cccc2c1OCO2 (stereo not shown) [4-(4-Benzo[1,3]dioxol-4-yl-2-hydroxy-4-methyl-2-trifluoromethylpentyl)-6-chloro-4H-thieno[3,2-b]pyridin-7-one] | potent activity |
| Cc1cccc(C(C)(C)CC(O)(Cn2ccc(=O)c3sccc32)C(F)(F)F)c1OC(F)F (stereo not shown) [4-[4-(2-Difluoromethoxy-3-methylphenyl)-2-hydroxy-4-methyl-2-trifluoromethylpentyl]-4H-thieno[3,2-b]pyridin-7-one] | potent activity |
